Experimental findings from patent publication US5346896A, “1-(aryl or heteroaryl)-4[ω-(aryl or heteroaryl)ω-(aryl or heteroaryl)alkylene]piperazines” (John Wyeth & Brother, Limited, priority 1990, dated 1994) are described below.

The target of the test is T1, 5-HT1A receptor (Rattus norvegicus, UniProt P19327).
T1 construct: rat hippocampal membrane homogenate; from tissue; host or cells: rat hippocampus, membrane homogenate
T1 sequence (P19327 1-422): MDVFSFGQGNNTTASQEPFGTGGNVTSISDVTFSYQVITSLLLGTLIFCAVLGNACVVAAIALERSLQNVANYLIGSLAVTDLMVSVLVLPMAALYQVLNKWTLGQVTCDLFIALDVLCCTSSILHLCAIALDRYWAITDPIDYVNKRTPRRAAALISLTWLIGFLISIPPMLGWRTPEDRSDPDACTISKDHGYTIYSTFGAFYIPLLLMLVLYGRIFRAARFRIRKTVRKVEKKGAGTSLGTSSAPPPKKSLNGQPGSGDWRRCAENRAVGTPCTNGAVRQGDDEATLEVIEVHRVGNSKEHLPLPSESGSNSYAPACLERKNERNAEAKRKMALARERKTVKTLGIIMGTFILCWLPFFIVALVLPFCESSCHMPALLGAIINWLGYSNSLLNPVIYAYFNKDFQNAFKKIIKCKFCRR
Description: 5-HT1A receptor binding activity in rat hippocampal membrane homogenate. The conditions noted are these: method of Alexander and Wood. The method, then:
The compounds of the invention are tested for 5-HT1A receptor binding activity in rat hippocampal membrane homogenate by the method of B. S. Alexander and M. D. Wood, J Pharm Pharmacol, 1988, 40, 888-891.

The IC50 is the point on the concentration scale where inhibition reaches its midpoint.

For `COc1ccccc1N1CCN(CC(c2ccccn2)C(O)c2ccccc2)CC1` (stereo not shown) [Example 2], the IC50 was 20 nM.
